Literature values, collected in patent US20260041710A1, “A NOVEL COMBINATION FOR ITS UTILITY IN MICRO AND MACRO VASCULAR COMPLICATIONS” (priority 2022, published 2026).
Where two headings read alike, the source gives them in different places.

Tests used:
[1] = tested on: 54 Irish patients of diabetic retinopathy; details: single injection

Bevacizumab: full-length antibody that inhibits all isoforms of the VEGF-A family
patients with greater than 50 microns reduction of macular thickness [1]: 9.2% | patients with greater than 100 microns reduction of macular thickness [1]: 20.3% | patients with less than 50 microns reduction in macular thickness [1]: 40.7% | patients without any improvement [1]: 29.6% | patients with greater than 50 microns reduction of macular thickness ([1]; of 54 patients): 5 patients | patients with less than 50 microns reduction in macular thickness ([1]; of 54 patients): 22 patients | patients without any improvement ([1]; of 54 patients): 16 patients | BCVA (1 month after intravitreal injection, P<0.001): 0.76 | BCVA (before intravitreal injection): 0.90
